The values below come from patent US12723063B2, “GIPR-agonist compounds” (Eli Lilly and Company, priority 2019, dated 2026).

*1 amine or outer side, *2 acyl side, *3 side chain or, on linkers, in order; H or OH if unused. Where a SMILES comes first, the peptide text is derived from it. Side-chain parts run from the residue outwards. [ ]: non-standard residue; d: D form. The star is where a group is joined. C20 diacid = O=C(O)CCCCCCCCCCCCCCCCCCC(=O)*; C18 diacid = O=C(O)CCCCCCCCCCCCCCCCC(=O)*; αMePhe(2-F) = C[C@](N)(Cc1ccccc1F)C(=O)O; γGlu = O=C(O)[C@H](CCC(=O)[*:2])N[*:1]; αMeF = C[C@](N)(Cc1ccccc1)C(=O)O; 4Pal = N[C@@H](Cc1ccncc1)C(=O)O; AEEA = NCCOCCOCC(=O)O; Aib = CC(C)(N)C(=O)O

T1 sequence (P43220 24-463): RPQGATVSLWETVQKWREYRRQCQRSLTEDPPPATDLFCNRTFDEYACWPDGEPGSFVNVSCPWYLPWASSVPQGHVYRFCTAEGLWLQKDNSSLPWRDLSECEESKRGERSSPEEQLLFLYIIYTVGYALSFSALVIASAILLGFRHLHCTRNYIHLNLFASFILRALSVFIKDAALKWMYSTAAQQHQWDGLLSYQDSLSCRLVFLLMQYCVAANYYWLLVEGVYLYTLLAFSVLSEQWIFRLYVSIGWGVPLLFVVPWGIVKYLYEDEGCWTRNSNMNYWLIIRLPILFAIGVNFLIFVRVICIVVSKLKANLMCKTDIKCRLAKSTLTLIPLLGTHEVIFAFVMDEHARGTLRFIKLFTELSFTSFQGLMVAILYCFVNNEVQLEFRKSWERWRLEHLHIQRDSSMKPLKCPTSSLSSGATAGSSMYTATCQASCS

This experiment addresses T1, human GLP-1R (Homo sapiens, UniProt P43220).
T1 construct: expressed in transfected cells; crude membranes
Briefly: [125I]-GLP-1 binding, SPA with WGA beads, 0.1% bacitracin. To be noted: geometric mean, read-out: hGLP1R Ki. The essentials:
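Binding buffer was 25 mM HEPES pH 7.4 with 2.5 mM CaCl2, 1 mM MgCl2, 0.1% (w/v) bacitracin, 0.003% Tween-20 and EDTA-free protease inhibitors. Four-parameter regression gave IC50, converted to Ki (geometric mean, SEM, n independent days).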
`CC[C@H](C)[C@H](NC(=O)[C@H](CO)NC(=O)[C@H](Cc1ccc(O)cc1)NC(=O)[C@H](CC(=O)O)NC(=O)[C@H](CO)NC(=O)[C@@H](NC(=O)[C@H](Cc1ccccc1)NC(=O)[C@@H](NC(=O)CNC(=O)[C@H](CCC(=O)O)NC(=O)C(C)(C)NC(=O)[C@@H](N)Cc1ccc(O)cc1)[C@@H](C)O)[C@@H](C)CC)C(=O)N[C@@H](C)C(=O)N[C@@H](CC(C)C)C(=O)N[C@@H](CC(=O)O)C(=O)N[C@@H](CCCCN)C(=O)N[C@@H](CCCCNC(=O)COCCOCCNC(=O)COCCOCCNC(=O)CC[C@H](NC(=O)CCCCCCCCCCCCCCCCC(=O)O)C(=O)O)C(=O)N[C@@H](Cc1c[nH]cn1)C(=O)N[C@@H](CCC(N)=O)C(=O)NC(C)(C)C(=O)N[C@@H](CC(=O)O)C(=O)N[C@@H](Cc1ccccc1)C(=O)N[C@H](C(=O)N[C@@H](CCC(=O)O)C(=O)N[C@@H](Cc1ccncc1)C(=O)N[C@@H](CC(C)C)C(=O)N[C@@H](CC(C)C)C(=O)N[C@@H](C)C(=O)NCC(=O)NCC(=O)N1CCC[C@H]1C(=O)N[C@@H](CO)C(=O)N[C@@H](CO)C(=O)NCC(=O)N[C@@H](C)C(=O)N1CCC[C@H]1C(=O)N1CCC[C@H]1C(=O)N1CCC[C@H]1C(=O)N[C@@H](CO)C(N)=O)C(C)C` [Example 21] (H-Y[Aib]EGTFISDYSIALDKK([AEEA-AEEA-γGlu-C18 diacid])HQ[Aib]DFVE[4Pal]LLAGGPSSGAPPPS-NH2): the inhibition constant (Ki) (as a rule, the dissociation constant of the complex between target and ligand, obtained from inhibition or displacement) is 801 nM. Take `CC[C@H](C)[C@H](NC(=O)[C@H](CO)NC(=O)[C@H](Cc1ccc(O)cc1)NC(=O)[C@H](CC(=O)O)NC(=O)[C@H](CO)NC(=O)[C@@H](NC(=O)[C@H](Cc1ccccc1)NC(=O)[C@@H](NC(=O)CNC(=O)[C@H](CCC(=O)O)NC(=O)C(C)(C)NC(=O)[C@@H](N)Cc1ccc(O)cc1)[C@@H](C)O)[C@@H](C)CC)C(=O)N[C@@H](CC(C)C)C(=O)N[C@@H](CC(C)C)C(=O)N[C@@H](CC(=O)O)C(=O)N[C@@H](CCCCN)C(=O)N[C@@H](CCCCNC(=O)COCCOCCNC(=O)COCCOCCNC(=O)CC[C@H](NC(=O)CCCCCCCCCCCCCCCCC(=O)O)C(=O)O)C(=O)N[C@@H](Cc1c[nH]cn1)C(=O)N[C@@H](CCC(N)=O)C(=O)NC(C)(C)C(=O)N[C@@H](CC(=O)O)C(=O)N[C@@H](Cc1ccccc1)C(=O)N[C@H](C(=O)N[C@@H](CCC(=O)O)C(=O)N[C@@H](Cc1ccncc1)C(=O)N[C@@H](CC(C)C)C(=O)N[C@@H](CC(C)C)C(=O)N[C@@H](C)C(=O)NCC(=O)NCC(=O)N1CCC[C@H]1C(=O)N[C@@H](CO)C(=O)N[C@@H](CO)C(=O)NCC(=O)N[C@@H](C)C(=O)N1CCC[C@H]1C(=O)N1CCC[C@H]1C(=O)N1CCC[C@H]1C(=O)N[C@@H](CO)C(N)=O)C(C)C` [Example 22]: the Ki stood at 388 nM.

With `CC[C@H](C)[C@H](NC(=O)[C@H](CO)NC(=O)[C@H](Cc1ccc(O)cc1)NC(=O)[C@H](CC(=O)O)NC(=O)[C@H](CO)NC(=O)[C@@H](NC(=O)[C@](C)(Cc1ccccc1)NC(=O)[C@@H](NC(=O)CNC(=O)[C@H](CCC(=O)O)NC(=O)C(C)(C)NC(=O)[C@@H](N)Cc1ccc(O)cc1)[C@@H](C)O)[C@@H](C)CC)C(=O)N[C@@H](C)C(=O)N[C@@H](CC(C)C)C(=O)N[C@@H](CC(=O)O)C(=O)N[C@@H](CCCCN)C(=O)N[C@@H](CCCCNC(=O)COCCOCCNC(=O)COCCOCCNC(=O)CC[C@H](NC(=O)CCCCCCCCCCCCCCCCC(=O)O)C(=O)O)C(=O)N[C@@H](Cc1c[nH]cn1)C(=O)N[C@@H](CCC(N)=O)C(=O)NC(C)(C)C(=O)N[C@@H](CC(=O)O)C(=O)N[C@@H](Cc1ccccc1)C(=O)N[C@H](C(=O)N[C@@H](CCC(=O)O)C(=O)N[C@@H](Cc1ccncc1)C(=O)N[C@@H](CC(C)C)C(=O)N[C@@H](CC(C)C)C(=O)N[C@@H](C)C(=O)NCC(=O)NCC(=O)N1CCC[C@H]1C(=O)N[C@@H](CO)C(=O)N[C@@H](CO)C(=O)NCC(=O)N[C@@H](C)C(=O)N1CCC[C@H]1C(=O)N1CCC[C@H]1C(=O)N1CCC[C@H]1C(=O)N[C@@H](CO)C(N)=O)C(C)C` [Example 23] (H-Y[Aib]EGT[αMeF]ISDYSIALDKK([AEEA-AEEA-γGlu-C18 diacid])HQ[Aib]DFVE[4Pal]LLAGGPSSGAPPPS-NH2), the Ki turned out to be 251 nM. Then `CC[C@H](C)[C@H](NC(=O)[C@H](Cc1ccccc1)NC(=O)[C@@H](NC(=O)CNC(=O)[C@H](CCC(=O)O)NC(=O)C(C)(C)NC(=O)[C@@H](N)Cc1ccc(O)cc1)[C@@H](C)O)C(=O)N[C@@H](CO)C(=O)N[C@@H](CC(=O)O)C(=O)N[C@@H](Cc1ccc(O)cc1)C(=O)N[C@@H](CO)C(=O)N[C@H](C(=O)NC(C)(C)C(=O)N[C@@H](CC(C)C)C(=O)N[C@@H](CC(=O)O)C(=O)N[C@@H](CCCCN)C(=O)N[C@@H](CCCCNC(=O)COCCOCCNC(=O)COCCOCCNC(=O)CC[C@H](NC(=O)CCCCCCCCCCCCCCCCC(=O)O)C(=O)O)C(=O)N[C@@H](Cc1c[nH]cn1)C(=O)N[C@@H](CCC(N)=O)C(=O)NC(C)(C)C(=O)N[C@@H](CC(=O)O)C(=O)N[C@@H](Cc1ccccc1)C(=O)N[C@H](C(=O)N[C@@H](CCC(=O)O)C(=O)N[C@@H](Cc1ccncc1)C(=O)N[C@@H](CC(C)C)C(=O)N[C@@H](CC(C)C)C(=O)N[C@@H](C)C(=O)NCC(=O)NCC(=O)N1CCC[C@H]1C(=O)N[C@@H](CO)C(=O)N[C@@H](CO)C(=O)NCC(=O)N[C@@H](C)C(=O)N1CCC[C@H]1C(=O)N1CCC[C@H]1C(=O)N1CCC[C@H]1C(=O)N[C@@H](CO)C(N)=O)C(C)C)[C@@H](C)CC` [Example 24], with 729 nM; and `CC[C@H](C)[C@H](NC(=O)[C@H](CO)NC(=O)[C@H](Cc1ccc(O)cc1)NC(=O)[C@H](CC(=O)O)NC(=O)[C@H](CO)NC(=O)[C@@H](NC(=O)[C@](C)(Cc1ccccc1)NC(=O)[C@@H](NC(=O)CNC(=O)[C@H](CCC(=O)O)NC(=O)C(C)(C)NC(=O)[C@@H](N)Cc1ccc(O)cc1)[C@@H](C)O)[C@@H](C)CC)C(=O)N[C@@H](C)C(=O)N[C@@H](CC(C)C)C(=O)N[C@@H](CC(=O)O)C(=O)N[C@@H](CCCCN)C(=O)N[C@@H](CCCCNC(=O)COCCOCCNC(=O)COCCOCCNC(=O)CC[C@H](NC(=O)CCCCCCCCCCCCCCCCCCC(=O)O)C(=O)O)C(=O)N[C@@H](Cc1c[nH]cn1)C(=O)N[C@@H](CCC(N)=O)C(=O)NC(C)(C)C(=O)N[C@@H](CCC(=O)O)C(=O)N[C@@H](Cc1ccccc1)C(=O)N[C@H](C(=O)N[C@@H](CC(N)=O)C(=O)N[C@@H](Cc1c[nH]c2ccccc12)C(=O)N[C@@H](CC(C)C)C(=O)N[C@@H](CC(C)C)C(=O)N[C@@H](C)C(=O)NCC(=O)NCC(=O)N1CCC[C@H]1C(=O)N[C@@H](CO)C(=O)N[C@@H](CO)C(=O)NCC(=O)N[C@@H](C)C(=O)N1CCC[C@H]1C(=O)N1CCC[C@H]1C(=O)N1CCC[C@H]1C(=O)N[C@@H](CO)C(N)=O)C(C)C` [Example 25] (H-Y[Aib]EGT[αMeF]ISDYSIALDKK([AEEA-AEEA-γGlu-C20 diacid])HQ[Aib]EFVNWLLAGGPSSGAPPPS-NH2), with 15.8 nM; and `CC[C@H](C)[C@H](NC(=O)[C@H](CO)NC(=O)[C@H](Cc1ccc(O)cc1)NC(=O)[C@H](CC(=O)O)NC(=O)[C@H](CO)NC(=O)[C@@H](NC(=O)[C@](C)(Cc1ccccc1F)NC(=O)[C@@H](NC(=O)CNC(=O)[C@H](CCC(=O)O)NC(=O)C(C)(C)NC(=O)[C@@H](N)Cc1ccc(O)cc1)[C@@H](C)O)[C@@H](C)CC)C(=O)N[C@@H](C)C(=O)N[C@@H](CC(C)C)C(=O)N[C@@H](CC(=O)O)C(=O)N[C@@H](CCCCN)C(=O)N[C@@H](CCCCNC(=O)COCCOCCNC(=O)COCCOCCNC(=O)CC[C@H](NC(=O)CCCCCCCCCCCCCCCCCCC(=O)O)C(=O)O)C(=O)N[C@@H](Cc1c[nH]cn1)C(=O)N[C@@H](CCC(N)=O)C(=O)NC(C)(C)C(=O)N[C@@H](CCC(=O)O)C(=O)N[C@@H](Cc1ccccc1)C(=O)N[C@H](C(=O)N[C@@H](CC(N)=O)C(=O)N[C@@H](Cc1c[nH]c2ccccc12)C(=O)N[C@@H](CC(C)C)C(=O)N[C@@H](CC(C)C)C(=O)N[C@@H](C)C(=O)NCC(=O)NCC(=O)N1CCC[C@H]1C(=O)N[C@@H](CO)C(=O)N[C@@H](CO)C(=O)NCC(=O)N[C@@H](C)C(=O)N1CCC[C@H]1C(=O)N1CCC[C@H]1C(=O)N1CCC[C@H]1C(=O)N[C@@H](CO)C(N)=O)C(C)C` [Example 26] (H-Y[Aib]EGT[αMePhe(2-F)]ISDYSIALDKK([AEEA-AEEA-γGlu-C20 diacid])HQ[Aib]EFVNWLLAGGPSSGAPPPS-NH2), with 16.5 nM. Then `CC[C@H](C)[C@H](NC(=O)[C@H](CO)NC(=O)[C@H](Cc1ccc(O)cc1)NC(=O)[C@H](CC(=O)O)NC(=O)[C@H](CO)NC(=O)[C@@H](NC(=O)[C@H](Cc1ccccc1)NC(=O)[C@@H](NC(=O)CNC(=O)[C@H](CCC(=O)O)NC(=O)[C@@H](C)NC(=O)[C@@H](N)Cc1ccc(O)cc1)[C@@H](C)O)[C@@H](C)CC)C(=O)N[C@@H](CC(C)C)C(=O)N[C@@H](CC(C)C)C(=O)N[C@@H](CC(=O)O)C(=O)N[C@@H](CCCCN)C(=O)N[C@@H](CCCCNC(=O)COCCOCCNC(=O)COCCOCCNC(=O)CC[C@H](NC(=O)CCCCCCCCCCCCCCCCC(=O)O)C(=O)O)C(=O)N[C@@H](C)C(=O)N[C@@H](CCC(N)=O)C(=O)NC(C)(C)C(=O)N[C@@H](CCC(=O)O)C(=O)N[C@@H](Cc1ccccc1)C(=O)N[C@H](C(=O)N[C@@H](CCC(N)=O)C(=O)N[C@@H](Cc1c[nH]c2ccccc12)C(=O)N[C@@H](CC(C)C)C(=O)N[C@@H](CC(C)C)C(=O)N[C@@H](C)C(=O)NCC(=O)NCC(=O)N1CCC[C@H]1C(=O)N[C@@H](CO)C(=O)N[C@@H](CO)C(=O)NCC(=O)N[C@@H](C)C(=O)N1CCC[C@H]1C(=O)N1CCC[C@H]1C(=O)N1CCC[C@H]1C(=O)N[C@@H](CO)C(N)=O)C(C)C` [Example 27] (H-Y[dA]EGTFISDYSILLDKK([AEEA-AEEA-γGlu-C18 diacid])AQ[Aib]EFVQWLLAGGPSSGAPPPS-NH2), with 23.2 nM.
